ChEMBL document CHEMBL5604063, “ASAP - DENV-2 NS2B-NS3 protease fluorescence dose response” (2024)
Where “and” joins values, the source holds several entries; their conditions need not be identical. Equal values may be shown once.

What was measured:
[1] = molecular target: T1, Genome polyprotein (dengue virus type 2, UniProt P29990); type: functional, Thailand/16681/1984
[2] = molecular target: T1, Genome polyprotein; type: functional, Thailand/16681/1984; remark: listed apart in the source

T1 sequence (P29990 1346-1475 limits assumed): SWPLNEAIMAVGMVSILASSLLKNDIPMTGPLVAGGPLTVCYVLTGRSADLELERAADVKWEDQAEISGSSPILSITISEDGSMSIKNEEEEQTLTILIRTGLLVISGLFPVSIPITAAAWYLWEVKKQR
T1 sequence (P29990 1476-2093 limits assumed): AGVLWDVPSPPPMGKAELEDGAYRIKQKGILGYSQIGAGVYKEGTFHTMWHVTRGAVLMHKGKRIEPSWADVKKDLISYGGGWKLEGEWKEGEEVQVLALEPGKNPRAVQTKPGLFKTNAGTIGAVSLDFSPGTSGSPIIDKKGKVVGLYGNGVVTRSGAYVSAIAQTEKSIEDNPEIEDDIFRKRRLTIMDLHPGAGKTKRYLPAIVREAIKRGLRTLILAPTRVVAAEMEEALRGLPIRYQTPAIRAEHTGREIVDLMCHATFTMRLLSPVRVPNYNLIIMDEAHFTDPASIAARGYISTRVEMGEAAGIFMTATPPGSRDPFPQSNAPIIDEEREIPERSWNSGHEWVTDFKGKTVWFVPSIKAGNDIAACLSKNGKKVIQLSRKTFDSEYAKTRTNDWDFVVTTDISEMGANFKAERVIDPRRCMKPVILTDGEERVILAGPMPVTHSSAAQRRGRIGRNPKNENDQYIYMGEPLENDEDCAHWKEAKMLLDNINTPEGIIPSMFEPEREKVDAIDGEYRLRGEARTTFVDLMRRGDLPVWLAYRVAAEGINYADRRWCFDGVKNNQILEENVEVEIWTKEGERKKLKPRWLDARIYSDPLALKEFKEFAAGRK

SMILES: Cc1c(C(=O)Nc2cc(C(=O)N3CC[C@H](O)C3)ccn2)cc(C2CC2)n1C
- IC50 [1]: > 99.5 µM
- IC50 [2]: > 100 µM

SMILES: NCc1ccc(-c2csc3cc(C(=O)Nc4ccc5c(c4)CNC5)ccc23)cc1
- IC50 [1]: 28.4 µM and 18.3 µM
- IC50 [2]: > 100 µM

SMILES: O=C1Cc2c(cccc2C(=O)Nc2ccc3c(c2)CNCC3)N1
- IC50 [1]: 76.4 µM
- IC50 [2]: > 100 µM

SMILES: CS(=O)(=O)c1cc2c(cc1NC(=O)c1cc(F)cc3[nH]ncc13)CNC2
- IC50 [1]: > 99.5 µM
- IC50 [2]: > 100 µM

SMILES: Cc1c(C(=O)Nc2cc(C(=O)N3CC[C@H](CO)C3)ccn2)cc(C2CC2)n1C
- IC50 [1]: > 99.5 µM
- IC50 [2]: > 100 µM

SMILES: Cc1ccc(-c2nc3c(C(=O)Nc4ccc5c(c4)CNC5)cc(F)cc3[nH]2)cc1
- IC50 [1]: 16.4 µM and 39.9 µM
- IC50 [2]: 70.2 µM

SMILES: CC(C)Oc1ccc(Cl)cc1[C@H](Nc1ccc2c(c1)CNC2)C(=O)NCC(F)F
- IC50 [1]: > 99.5 µM
- IC50 [2]: > 100 µM

SMILES: Cc1c(C(=O)Nc2cc(C(=O)N3CC(CO)C3)ccn2)cc(C2CC2)n1C
- IC50 [1]: > 99.5 µM
- IC50 [2]: > 100 µM

SMILES: Cc1cc([C@H](Nc2ccc3c(c2)CNC3)C(=O)NCC(F)F)cc(C(F)(F)F)c1
- IC50 [1]: > 99.5 µM
- IC50 [2]: > 100 µM

SMILES: O=C(Nc1ccc2c(c1)CN[C@H]2[C@H](O)CO)c1cc(F)cc2[nH]ncc12
- IC50 [1]: > 99.5 µM
- IC50 [2]: > 100 µM

SMILES: NCCc1cc(C(=O)Nc2cc(-c3cccnc3)ccn2)no1
- IC50 [1]: > 99.5 µM
- IC50 [2]: > 100 µM

SMILES: O=C(Nc1ccc2c(c1)CNC2)c1cccc2c(C3CNC3)n[nH]c12
- IC50 [1]: 19 µM and 17.2 µM
- IC50 [2]: 22.7 µM and 26.4 µM

SMILES: Cc1c(C(=O)Nc2cc(C(=O)N(C)[C@H]3C[C@H](O)C3)ccn2)cc(C2CC2)n1C
- IC50 [1]: > 99.5 µM
- IC50 [2]: > 100 µM

SMILES: Cc1c(C(=O)Nc2cc(C(=O)N3Cc4cn[nH]c4C3)ccn2)cc(C2CC2)n1C
- IC50 [1]: > 99.5 µM
- IC50 [2]: > 100 µM

SMILES: O=C1Cc2c(cccc2C(=O)Nc2ccc3c(c2)CNCCO3)N1
- IC50 [1]: > 99.5 µM
- IC50 [2]: > 100 µM

SMILES: CNC(=O)C[C@H]1CC[C@@H](NC(=O)c2cccc3c2CC(=O)N3)CC1
- IC50 [1]: > 99.5 µM
- IC50 [2]: > 100 µM

SMILES: CO[C@H]1CCCN(C(=O)c2ccnc(NC(=O)c3cc(C4CC4)n(C)c3C)c2)C1
- IC50 [1]: > 99.5 µM
- IC50 [2]: > 100 µM

SMILES: Cn1ccc(-c2cc(F)cc(C(=O)Nc3ccc4c(c3)CNC4)c2)cc1=O
- IC50 [1]: > 99.5 µM
- IC50 [2]: > 100 µM

SMILES: CC(=O)N(c1ccc2c(c1)CNC2)[C@H](C(=O)NCC(F)F)c1cc(Cl)cc(C2CC2)c1
- IC50 [1]: > 99.5 µM
- IC50 [2]: > 100 µM

SMILES: COCCO[C@]1(C)C(=O)Nc2cc(F)cc(C(=O)Nc3ccc4c(c3)CNC4)c21
- IC50 [1]: > 99.5 µM
- IC50 [2]: > 100 µM

SMILES: O=C(Nc1ccc2c(c1)CNC2)c1cc(F)cc2[nH]c(-c3ccc(F)cc3O)nc12
- IC50 [1]: 62.1 µM
- IC50 [2]: > 100 µM

SMILES: O=C1Cc2c(cccc2C(=O)N[C@H]2C[C@H](Cn3ccnc3)C2)N1
- IC50 [1]: > 99.5 µM
- IC50 [2]: > 100 µM

SMILES: N#Cc1c[nH]c2c(C(=O)Nc3ccc4c(c3)CNC4)cccc12
- IC50 [1]: > 99.5 µM
- IC50 [2]: > 100 µM

SMILES: Cc1c(C(=O)Nc2cc(C(=O)N3CCC(O)CC3)ccn2)cc(C2CC2)n1C
- IC50 [1]: > 99.5 µM
- IC50 [2]: > 100 µM

SMILES: Cc1c(C(=O)Nc2cc(C(=O)N3CCNC(=O)C3)ccn2)cc(C2CC2)n1C
- IC50 [1]: > 99.5 µM
- IC50 [2]: > 100 µM

SMILES: Cn1nccc1-c1cc(NC(=O)c2cc(F)cc3[nH]ncc23)cc2c1CNC2
- IC50 [1]: 54.1 µM
- IC50 [2]: 81.4 µM

SMILES: Cc1c(C(=O)Nc2cc(C(N)=O)ccn2)cc(C2CC2)n1C
- IC50 [1]: > 99.5 µM
- IC50 [2]: > 100 µM

SMILES: CN1CCc2c([nH]c3ccc(C(=O)Nc4ccc5c(c4)CNC5)cc23)C1=O
- IC50 [1]: > 99.5 µM
- IC50 [2]: > 100 µM

SMILES: Cc1[nH]c2c(C(=O)Nc3ccc4c(c3)CNC4)cccc2c1C
- IC50 [1]: > 99.5 µM
- IC50 [2]: > 100 µM

SMILES: C=CC[C@H]1NCc2cc(NCc3cc(Cl)cc4[nH]ncc34)ccc21
- IC50 [1]: > 99.5 µM
- IC50 [2]: > 100 µM

SMILES: Cc1c(C(=O)Nc2cc(C(=O)N3CCOC[C@H](O)C3)ccn2)cc(C2CC2)n1C
- IC50 [1]: > 99.5 µM
- IC50 [2]: > 100 µM

SMILES: Cc1c(C(=O)Nc2cc(C(=O)N3CCOCC3)ccn2)cc(C2CC2)n1C
- IC50 [1]: > 99.5 µM
- IC50 [2]: > 100 µM

SMILES: Cc1c(C(=O)Nc2cc(C(=O)N3CCCNC(=O)C3)ccn2)cc(C2CC2)n1C
- IC50 [1]: > 99.5 µM
- IC50 [2]: > 100 µM

SMILES: O=C(Nc1ccc2c(c1)CN[C@H]2CO)c1cc(F)cc2[nH]ncc12
- IC50 [1]: > 99.5 µM
- IC50 [2]: > 100 µM

SMILES: O=C(Nc1ccc2c(c1)CNC2)c1cccc2c3c([nH]c12)CCC3
- IC50 [1]: > 99.5 µM
- IC50 [2]: > 100 µM

SMILES: Cc1c(C(=O)Nc2cc(Br)c3c(c2)COC3)cc(C2CC2)n1C
- IC50 [1]: > 99.5 µM
- IC50 [2]: > 100 µM

SMILES: O=C1CCc2cc(C(=O)Nc3ccc4c(c3)CNC4)cc(F)c2N1
- IC50 [1]: > 99.5 µM
- IC50 [2]: > 100 µM

SMILES: CC(C)O[C@]1(C)C(=O)Nc2cc(F)cc(C(=O)Nc3ccc4c(c3)CNC4)c21
- IC50 [1]: > 99.5 µM
- IC50 [2]: > 100 µM

SMILES: Cc1c(C(=O)Nc2cc(C(=O)N3CC(C(N)=O)C3)ccn2)cc(C2CC2)n1C
- IC50 [1]: > 99.5 µM
- IC50 [2]: > 100 µM

SMILES: NCc1csc2cc(C(=O)Nc3cc([C@H]4CCOC4)ccn3)ccc12
- IC50 [1]: > 99.5 µM
- IC50 [2]: > 100 µM

SMILES: N[C@H]1Cc2ccc(NC(=O)c3cccc4c3CC(=O)N4)cc2C1
- IC50 [1]: 20.5 µM
- IC50 [2]: 48.5 µM and 56.1 µM
